Data: patent publication US7833785B2, “Method for chemical dissociation of cells from physical surfaces” (priority 2004, dated 2010)
Where a name gives a salt, the structure may show the parent alone.

Columns and labels:
in vitro [1] = conditions: mouse, Average Cell Viability
Protocol: (§6) The viable cell concentration, viabilities, and fold increase in number of viable cells for mouse neurospheres exposed to different acidic neutralizing solutions following chemical dissociation. The aggregates were dissociated into a single cell suspension using an NaOH based dissociation solution. Acidic neutralizing solutions generated using a variety of acids (listed in table) were then added to counteract the high pH of the dissociation medium. Cell counts and viabilities were determined by trypan blue exclusion. Cells were serially subcultured for 4 passages in 25 cm^2 tissue culture flasks containing 5 mL of PPRF-m4 medium. The flasks were maintained in a humidified 37° C. incubator containing 5% CO2 (Average values, n=3).
(§7) All of the experiments conducted to test the effect of different neutralizing solutions employed an NaOH based dissociation medium to dissociate the cells.
(§8) Passage 3 mouse neurospheres originally procured from the striata of 14 day old embryonic mice were thawed and passaged twice (passage 5) in PPRF-m4 medium. These neuropsheres samples were previously dissociated by mechanical dissociation at each passage prior to being used for the experiments described here. Passage 5 mouse neurospheres were isolated and centrifuged (10 minutes, 140 g) to form a cell pellet in a 15 mL centrifuge tube. The supernatant was completely removed. The aggregates were then resuspended in 200 μL of fresh PPRF-m4 medium at room temperature by pipetting the cell pellet 5 times. 200 μL of an NaOH based alkaline dissociation medium was then added to the tube, and a stopwatch was used to time the procedure for 7 minutes. After 2 minutes and 5 minutes had elapsed, the cells were gently pipetted 5 times. After 7 minutes had elapsed, 200 μL of an acidic neutralizing medium was added to the mixture to decrease the pH, and the sample was gently pipetted 5 more times. […] The cell concentration and viability of the resulting cell suspension was determined using trypan blue exclusion, and the single cells were inoculated at 7.5×10^5 cells/mL into 25 cm^2 tissue culture flasks to determine if the neutralizing solution inhibited the cells from proliferating (Table 3). The cells were subsequently serially subcultured using the same neutralizing solution to which they had previously been exposed.

mouse neurospheres [2] = assay: Different acidic neutralizing solutions after NaOH dissociation of mouse neurospheres; trypan blue exclusion, serial subculture; conditions: for Average Viable Cell Conc.: NaOH dissociation, acid as neutralizing solution; for Average Viable Cell Conc. / Average Cell Viability: n=3; for Average Cell Viability: trypan blue exclusion
Protocol: as §6, §7, §8

mouse neurospheres [3] = assay: Dissociation of mouse neurospheres using different alkaline solutions; trypan blue exclusion, serial subculture; conditions: for Average Viable Cell Conc.: base in PPRF-m4, neutralized with HCl; for Average Viable Cell Conc. / Average Cell Viability: n=3; for Fold Increase in number of viable cells: inoculated at 0.75×10^5 cells/mL; for Average Cell Viability: trypan blue exclusion
Protocol: (§1) Table 2. […] Following dissociation, the pH was reduced by using neutralizing solution generated using HCl.
(§2) In order to counteract the pH effect of the alkaline dissociation solutions on the cells, an appropriate quantity of acidic medium was added.
(§3) The supernatant was completely removed. […] A volume of 200 μL was added to those samples dissociated with sodium hydroxide, potassium hydroxide or sodium phosphate tribasic dodecahydrate. A volume of 300 μL was added to those samples dissociated using ammonium hydroxide. […] Following the addition of the acidic medium, the cell sample was gently pipetted 5 more times.

in vitro [4] = conditions: mouse, Average Cell Viability; remark: listed apart in the source
Protocol: as §1, §2, §3

[5] = tested on: mouse embryonic stem cells; assay: Detachment and dissociation of mouse embryonic stem cells using different bases in PBS with 10 mM EDTA; trypan blue exclusion; conditions: for Average Viable Cell Conc.: base in 1×PBS with 10 mM EDTA; for Average Viable Cell Conc. / Average Cell Viability: n=3; for Fold Increase in number of viable cells: inoculated at 3.13×10^4 cells/mL; for Average Cell Viability: trypan blue exclusion
Protocol: (§4) A total of five different dissociation solutions were tested for their ability to detach and dissociate mouse embryonic stem cells. Each solution was made by adding a different base to a basal solution (1×PBS solution containing 10 mM EDTA).
(§5) A volume of 2.0 mL of the appropriate dissociation solution was then added to each 25 cm^2 tissue culture flask, and the flasks were placed in an incubator at 37° C. The flasks were rocked intermittently over a period of 22 minutes after which gentle pipetting was used to break up any remaining clumps of cells. The cell suspension was collected and added to a sterile 15 mL tube containing 5.0 mL of medium and then centrifuged for 5 minutes at 1000 rpm. […] After centrifugation, the supernatant was discarded and the pellet was resuspended in 1.0 mL of medium.

in vitro [6] = conditions: mouse, Average Cell Viability; remark: listed apart in the source
Protocol: as §4, §5

Row | Compound | Fold Increase in number of viable cells (mouse neurospheres [2]; passage 1) | Average Viable Cell Conc. (mouse neurospheres [2]; passage 1) | Fold Increase in number of viable cells (mouse neurospheres [2]; passage 2) | Average Viable Cell Conc. (mouse neurospheres [2]; passage 2) | Fold Increase in number of viable cells (mouse neurospheres [2]; passage 3) | Average Viable Cell Conc. (mouse neurospheres [2]; passage 3) | Fold Increase in number of viable cells (mouse neurospheres [2]; passage 4) | Average Viable Cell Conc. (mouse neurospheres [2]; passage 4) | Average Viable Cell Conc. (mouse neurospheres [3]; passage 1) | Fold Increase in number of viable cells (mouse neurospheres [3]; passage 1) | Average Viable Cell Conc. (mouse neurospheres [3]; passage 2) | Fold Increase in number of viable cells (mouse neurospheres [3]; passage 2) | Average Viable Cell Conc. (mouse neurospheres [3]; passage 3) | Fold Increase in number of viable cells (mouse neurospheres [3]; passage 3) | Average Viable Cell Conc. (mouse neurospheres [3]; passage 4) | Fold Increase in number of viable cells (mouse neurospheres [3]; passage 4) | Average Viable Cell Conc. ([5]; passage 1) | Average Viable Cell Conc. ([5]; passage 2) | Average Viable Cell Conc. ([5]; passage 3) | Average Viable Cell Conc. ([5]; passage 4) | other results
1 | O=P(O)(O)O [Phosphoric Acid, phosphoric acid] | 15 | 11.5 10^5 cells/mL | 23 | 17.3 10^5 cells/mL | 6 | 4.2 10^5 cells/mL | 16 | 11.8 10^5 cells/mL |  |  |  |  |  |  |  |  |  |  |  |  | viability (in vitro [1]): 91%
2 | Cl [HCl, hydrochloric acid] | 14 | 10.9 10^5 cells/mL | 17 | 12.7 10^5 cells/mL | 12 | 9.0 10^5 cells/mL | 14 | 10.2 10^5 cells/mL |  |  |  |  |  |  |  |  |  |  |  |  | Average Cell Viability (mouse neurospheres [2]; passage 1): 91%; Average Cell Viability (mouse neurospheres [2]; passage 2): 92%; Average Cell Viability (mouse neurospheres [2]; passage 3): 92%; Average Cell Viability (mouse neurospheres [2]; passage 4): 89%
3 | O=S(=O)(O)O [Sulfuric Acid, sulfuric acid] | 14 | 10.5 10^5 cells/mL | 18 | 13.1 10^5 cells/mL | 8 | 6.1 10^5 cells/mL | 15 | 11.3 10^5 cells/mL |  |  |  |  |  |  |  |  |  |  |  |  | viability (in vitro [1]): 89%
4 | CC(=O)O [Acetic Acid, acetic acid] | 13 | 9.6 10^5 cells/mL | 20 | 14.3 10^5 cells/mL | 10 | 7.2 10^5 cells/mL | 17 | 12.8 10^5 cells/mL |  |  |  |  |  |  |  |  |  |  |  |  | viability (in vitro [1]): 91%
5 | N [Ammonium Hydroxide, ammonium hydroxide] |  |  |  |  |  |  |  |  | 6.2 10^5 cells/mL | 8 | 8.4 10^5 cells/mL | 11 | 10.5 10^5 cells/mL | 14 | 9.1 10^5 cells/mL | 12 | 4.1 10^5 cells/mL | 1.4 10^5 cells/mL | 2.7 10^5 cells/mL | 5.1 10^5 cells/mL | viability at 7 min, 23.8 mM (in vitro [4]): 91%; Fold Increase in number of viable cells ([5]; passage 1): 13; Fold Increase in number of viable cells ([5]; passage 2): 4; Fold Increase in number of viable cells ([5]; passage 3): 8; Fold Increase in number of viable cells ([5]; passage 4): 16; viability at 22 min, 9.9 mM (in vitro [6]): 84%
6 | [K+].[OH-] [KOH, potassium hydroxide] |  |  |  |  |  |  |  |  | 7.1 10^5 cells/mL | 9.4 | 8.7 10^5 cells/mL | 12 | 13.9 10^5 cells/mL | 18 | 19.0 10^5 cells/mL | 25 | 4.3 10^5 cells/mL | 1.8 10^5 cells/mL | 3.2 10^5 cells/mL | 4.4 10^5 cells/mL | Average Cell Viability (mouse neurospheres [3]; passage 1): 81%; Average Cell Viability (mouse neurospheres [3]; passage 2): 85%; Average Cell Viability (mouse neurospheres [3]; passage 3): 9%; Average Cell Viability (mouse neurospheres [3]; passage 4): 93%; Fold Increase in number of viable cells ([5]; passage 1): 14; Average Cell Viability ([5]; passage 1): 89%; Fold Increase in number of viable cells ([5]; passage 2): 6; Average Cell Viability ([5]; passage 2): 86%; Fold Increase in number of viable cells ([5]; passage 3): 10; Average Cell Viability ([5]; passage 3): 81%; Fold Increase in number of viable cells ([5]; passage 4): 14; Average Cell Viability ([5]; passage 4): 81%
7 | O.O.O.O.O.O.O.O.O.O.O.O.O=P([O-])([O-])[O-].[Na+].[Na+].[Na+] [Sodium Phosphate, sodium phosphate tribasic dodecahydrate] |  |  |  |  |  |  |  |  | 11.5 10^5 cells/mL | 15 | 7.3 10^5 cells/mL | 10 | 13.9 10^5 cells/mL | 18 | 10.2 10^5 cells/mL | 14 | 4.2 10^5 cells/mL | 2.0 10^5 cells/mL | 4.1 10^5 cells/mL | 6.7 10^5 cells/mL | Average Cell Viability (mouse neurospheres [3]; passage 1): 87%; Average Cell Viability (mouse neurospheres [3]; passage 2): 89%; Average Cell Viability (mouse neurospheres [3]; passage 3): 89%; Average Cell Viability (mouse neurospheres [3]; passage 4): 93%; Fold Increase in number of viable cells ([5]; passage 1): 14; Average Cell Viability ([5]; passage 1): 88%; Fold Increase in number of viable cells ([5]; passage 2): 6; Average Cell Viability ([5]; passage 2): 91%; Fold Increase in number of viable cells ([5]; passage 3): 13; Average Cell Viability ([5]; passage 3): 87%; Fold Increase in number of viable cells ([5]; passage 4): 21; Average Cell Viability ([5]; passage 4): 84%
8 | O=C([O-])[O-].[Na+].[Na+] [Sodium Carbonate, sodium carbonate] |  |  |  |  |  |  |  |  | 7.7 10^5 cells/mL |  | 11.4 10^5 cells/mL |  | 11.1 10^5 cells/mL |  | 8.7 10^5 cells/mL |  | 3.7 10^5 cells/mL | 3.6 10^5 cells/mL | 7.7 10^5 cells/mL | 6.8 10^5 cells/mL | 
9 | [Na+].[OH-] [NaOH, sodium hydroxide] |  |  |  |  |  |  |  |  | 8.7 10^5 cells/mL | 12 | 12.9 10^5 cells/mL | 17 | 8.8 10^5 cells/mL | 12 | 13.9 10^5 cells/mL | 18 | 3.6 10^5 cells/mL | 6.2 10^5 cells/mL | 7.5 10^5 cells/mL | 5.7 10^5 cells/mL | Fold Increase in number of viable cells ([5]; passage 1): 12; Fold Increase in number of viable cells ([5]; passage 2): 20; Fold Increase in number of viable cells ([5]; passage 3): 24; Fold Increase in number of viable cells ([5]; passage 4): 18
